Results taken from publication PMC8031368 (ACS chemical biology, 2020).

Key:
[1] = Determination of partition coefficient; assay type: physicochemical; details: 1-octanol / PBS pH 7.4
[2] = Dynamic PET scan over 60 min, time activity curves; assay type: in vivo; details: male C57Bl6/J mice
[3] = Biodistribution study post mortem; assay type: in vivo; details: C57Bl6/J mice, mean ± SD
[4] = molecular target: T1, GR (Mus musculus, UniProt P06537); test: 18F-YJH08 PET/CT in adipocyte specific GR knockout mice; assay type: in vivo; details: vs wild type litter mate, supraspinal and scapular brown fat depots
T1 sequence (P06537 1-792): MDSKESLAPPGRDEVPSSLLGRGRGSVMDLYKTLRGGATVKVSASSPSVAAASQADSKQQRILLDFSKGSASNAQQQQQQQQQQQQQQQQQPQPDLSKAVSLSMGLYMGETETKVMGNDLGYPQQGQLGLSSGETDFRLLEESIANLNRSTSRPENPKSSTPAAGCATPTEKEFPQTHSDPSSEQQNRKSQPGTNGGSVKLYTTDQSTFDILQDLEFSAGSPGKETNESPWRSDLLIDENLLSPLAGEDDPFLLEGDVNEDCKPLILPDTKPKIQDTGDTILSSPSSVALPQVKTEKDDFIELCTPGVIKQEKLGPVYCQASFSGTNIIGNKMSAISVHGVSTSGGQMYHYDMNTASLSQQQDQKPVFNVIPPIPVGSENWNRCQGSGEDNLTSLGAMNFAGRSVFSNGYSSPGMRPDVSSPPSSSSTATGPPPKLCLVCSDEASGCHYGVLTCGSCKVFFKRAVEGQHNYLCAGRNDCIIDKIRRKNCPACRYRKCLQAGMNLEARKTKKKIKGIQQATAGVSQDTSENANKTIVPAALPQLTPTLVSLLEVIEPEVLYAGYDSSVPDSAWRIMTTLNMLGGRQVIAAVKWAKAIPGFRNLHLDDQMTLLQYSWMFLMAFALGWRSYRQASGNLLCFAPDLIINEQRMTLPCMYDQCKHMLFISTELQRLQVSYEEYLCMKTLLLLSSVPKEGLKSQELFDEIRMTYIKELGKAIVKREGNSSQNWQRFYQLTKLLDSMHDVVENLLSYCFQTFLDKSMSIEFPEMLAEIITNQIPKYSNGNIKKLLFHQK

[5] = molecular target: T1, GR; test: 18F-YJH08 uptake in adrenalectomized mice
[6] = tested on: GR; test: Immunoblot of GR in tissues of JG231 treated mice; assay type: in vivo; details: JG231 4 mg/kg/day for 3 days intraperitoneally
[7] = tested on: GR in MCF7; test: Immunoblot of GR in MCF7 cells treated with JG231; assay type: cell-based, human; details: 24 h
[8] = tested on: GR in MDA MB 231; test: Immunoblot of GR in MDA MB 231 cells treated with JG231; assay type: cell-based, human; details: 24 h
[9] = tested on: prostate cancer mouse models; details: cited from earlier work
[10] = tested on: GR target genes (GILZ, FKBP5, Per1) in DU145 cells; test: Real time PCR of GR target genes in DU145 cells; assay type: cell-based, human; details: DU145 cells, dexamethasone 1 μM, 6 h exposure

COc1cccc2c1-c1ccc3c(c1C(Cc1ccc([18F])cc1)O2)C(C)=CC(C)(C)N3 (centres unmarked) [18F-YJH08, ^18F-5-(4-fluorobenzyl)-10-methoxy-2,2,4-trimethyl-2,5-dihydro-1H-chromeno[3,4-f]quinoline]
partition coefficient (log P) [1]: 2.78
mechanism of clearance ([2]; liver uptake and washout): hepatobiliary
radiotracer uptake in the bone (stability to radiodefluorination) [2]: low and approximately equivalent to muscle
uptake in adrenal gland ([3]; 30 min after injection): 20.02 ± 2.21 % ID/g
uptake in adrenal gland ([3]; 60 min after injection): 9.43 ± 0.08 % ID/g
uptake in adrenal gland ([3]; 90 min after injection): 5.72 ± 2.32 % ID/g
uptake in blood ([3]; 30 min after injection): 0.85 ± 0.1 % ID/g
uptake in blood ([3]; 60 min after injection): 0.57 ± 0.02 % ID/g
uptake in blood ([3]; 90 min after injection): 0.49 ± 0.06 % ID/g
uptake in bone ([3]; 30 min after injection): 1.11 ± 0.15 % ID/g
uptake in bone ([3]; 60 min after injection): 0.61 ± 0.15 % ID/g
uptake in bone ([3]; 90 min after injection): 0.58 ± 0.16 % ID/g
uptake in brain ([3]; 30 min after injection): 1.68 ± 0.14 % ID/g
uptake in brain ([3]; 60 min after injection): 1.33 ± 0.06 % ID/g
uptake in brain ([3]; 90 min after injection): 0.97 ± 0.03 % ID/g
uptake in heart ([3]; 30 min after injection): 3.04 ± 0.75 % ID/g
uptake in heart ([3]; 60 min after injection): 1.33 ± 0.21 % ID/g
uptake in heart ([3]; 90 min after injection): 0.92 ± 0.14 % ID/g
uptake in kidney ([3]; 30 min after injection): 4.5 ± 0.5 % ID/g
uptake in kidney ([3]; 60 min after injection): 2.35 ± 0.34 % ID/g
uptake in kidney ([3]; 90 min after injection): 1.86 ± 0.26 % ID/g
uptake in large intestine ([3]; 30 min after injection): 1.33 ± 0.35 % ID/g
uptake in large intestine ([3]; 60 min after injection): 1.23 ± 0.43 % ID/g
uptake in large intestine ([3]; 90 min after injection): 6.67 ± 4.73 % ID/g
uptake in liver ([3]; 30 min after injection): 11.03 ± 0.89 % ID/g
uptake in liver ([3]; 60 min after injection): 7.7 ± 0.69 % ID/g
uptake in liver ([3]; 90 min after injection): 8.43 ± 1.38 % ID/g
uptake in lung ([3]; 30 min after injection): 2.65 ± 0.19 % ID/g
uptake in lung ([3]; 60 min after injection): 2.02 ± 0.29 % ID/g
uptake in lung ([3]; 90 min after injection): 1.39 ± 0.1 % ID/g
uptake in muscle ([3]; 30 min after injection): 1.49 ± 0.2 % ID/g
uptake in muscle ([3]; 60 min after injection): 1.15 ± 0.03 % ID/g
uptake in muscle ([3]; 90 min after injection): 0.85 ± 0.18 % ID/g
uptake in pancreas ([3]; 30 min after injection): 4.5 ± 0.15 % ID/g
uptake in pancreas ([3]; 60 min after injection): 2.63 ± 0.05 % ID/g
uptake in pancreas ([3]; 90 min after injection): 1.9 ± 0.41 % ID/g
uptake in small intestine ([3]; 30 min after injection): 19.05 ± 3.27 % ID/g
uptake in small intestine ([3]; 60 min after injection): 8.61 ± 2.68 % ID/g
uptake in small intestine ([3]; 90 min after injection): 7.67 ± 2.34 % ID/g
uptake in spleen ([3]; 30 min after injection): 1.59 ± 0.13 % ID/g
uptake in spleen ([3]; 60 min after injection): 0.83 ± 0.02 % ID/g
uptake in spleen ([3]; 90 min after injection): 0.74 ± 0.15 % ID/g
uptake in stomach ([3]; 30 min after injection): 1.88 ± 0.96 % ID/g
uptake in stomach ([3]; 60 min after injection): 1.63 ± 0.92 % ID/g
uptake in stomach ([3]; 90 min after injection): 2.61 ± 1.54 % ID/g
uptake in supraspinal BAT ([3]; 30 min after injection): 14.41 ± 3.42 % ID/g
uptake in supraspinal BAT ([3]; 60 min after injection): 16.4 ± 4.93 % ID/g
uptake in supraspinal BAT ([3]; 90 min after injection): 14.58 ± 1.91 % ID/g
uptake in fat depots of GR^fl/fl, Adipoq-Cre knockout mice [4]: significantly reduced
tissue uptake in adx mice compared to intact mice [5]: higher

CCn1c(=O)/c(=C2\Sc3cc(Cl)ccc3N2C)s/c1=C\c1scc[n+]1Cc1ccc(Br)s1.[Cl-] [JG231]
change in GR levels in kidneys, liver, and muscle [6]: no change
reduction in GR expression levels in brown fat [6]: ~ 50%
GR degradation (immunoblot) [7]: degrades GR
GR degradation (immunoblot) [8]: degrades GR
antitumor activity [9]: antitumor activity

C[C@@H]1C[C@H]2[C@@H]3CCC4=CC(=O)C=C[C@]4(C)[C@@]3(F)[C@@H](O)C[C@]2(C)[C@@]1(O)C(=O)CO [dexamethasone, reference compound]
induction of Per1 [10]: induced
